Experiments:
ROCK2 = ROCK2 (Homo sapiens (Human), UniProt O75116); experiment: ROCK2 kinase inhibition assay (peptide phosphorylation, LabChip 3000); assay type: biochemical; conditions: 7 μM ATP, 2.5 nM ROCK2, 3 hours at 25° C.
Experimental: (§1) The peptide is >98% purity by Capillary Electrophoresis. The peptide is phosphorylated by the protein kinase ROCK1 or ROCK2. The ROCK1 or ROCK2 enzyme, substrate, and cofactors (ATP and Mg^2+) are combined in a well of a microtiter plate and incubated for 3 hours at 25° C. At the end of the incubation, the reaction is quenched by the addition of an EDTA-containing buffer. The substrate and product are separated and quantified electrophoretically using the microfluidic-based LABCHIP® 3000 Drug Discovery System from Caliper Life Sciences (Hopkinton, Mass.).
(§2) The components of the assay mixture are:
(§3) 10 μM Sodium Orthovanadate
(§4) 10 μM Beta-Glycerophosphate
(§5) 5 μM ATP (for ROCK1) or 7 μM ATP (for ROCK2)
(§6) 3 nM ROCK1 or 2.5 nM ROCK2 enzyme
(§7) Substrate and product peptides present in each sample are separated electrophoretically using the LABCHIP® 3000 capillary electrophoresis instrument. […] Change in the relative fluorescence intensity of the substrate and product peaks is the parameter measured reflecting enzyme activity. Capillary electrophoregramms (RDA acquisition files) are analyzed using HTS Well Analyzer software (Caliper Life Sciences, Hopkinton, Mass.). The kinase activity in each sample is determined as the product to sum ratio (PSR): P/(S+P), where P is the peak height of the product peptide and S is the peak height of the substrate peptide. For each compound, enzyme activity is measured at various concentrations (12 concentrations of compound spaced by 3× dilution intervals). Negative control samples (0%-inhibition in the absence of inhibitor) and positive control samples (100%-inhibition in the presence of 20 mM EDTA) are assembled in replicates of four and are used to calculate %-inhibition values for each compound at each concentration. Percent inhibition (Pinh) is determined using the following equation: Pinh=(PSR0%−PSRinh)/(PSR0%−PSR100%)*100 where PSRinh is the product sum ratio in the presence of inhibitor, PSR0% is the average product sum ratio in the absence of inhibitor, and PSR100% is the average product sum ratio in 100%-inhibition control samples. The IC50 values of inhibitors are determined by fitting the inhibition curves (Pinh versus inhibitor concentration) by 4 parameter sigmoidal dose-response model using XLfit 4 software (IBDS).

MV411 cells = experiment: Cell viability assay (CellTiter-Blue), MV411; assay type: cell-based; conditions: for FLT3-ITD+ Selectivity (K562/MV411): ratio of K562 to MV411 IC50; for IC50: Homo sapiens, MV4-11, MV411 (ITD-FLT3+), 72 hours treatment
Experimental: (§8) Cell viability in the presence of varying concentrations of the above listed compounds at different time points was used to assess cytotoxicity and the effect of the compounds on cell proliferation.
This procedure measures the conversion of the indicator dye (resazurin) to resorufin, an indicator of cell viability. […] Fluorescence values were measured at 535/590 nm using a Beckman-Coulter DTX-880 microplate reader.
Cells were grown to 70% confluency, trypsinized, counted, and seeded in 96 well flat-bottom plates at a final concentration of 2.5×10^3-5×10^3 cells/well (Day 0). Cells were allowed to incubate in growth media for 24 hours to allow for maximum adhesion. Treatment with the test agents or standard agents began on Day 1 and continued for 72 hours. At the 72-hour time point, treatment containing media was removed. […] Experiments were repeated at least twice with the same concentrations to determine growth inhibitory activity.
(§9) For single agent and combination studies, data from each experiment was collected and expressed as % Cell Growth using the following calculation: % Cell Growth=(ftest/fvehicle)×100 Where ftest is the fluorescence of the tested sample, and fvehicle is the fluorescence of the vehicle in which the drug is dissolved. Dose response graphs and IC50 values were generated using Prism 4 software (GraphPad) using the following equation: Y=(Top−Bottom)/(1+10^((logIC50-X)[…])) Where X is the logarithm of the concentration and Y is the response. Y starts at the Bottom and goes to the Top with a sigmoid shape.
(§10) The experiments also evaluated the selectivity of the compounds for inhibiting growth of cancer cells carrying a mutation in the Flt3 gene. The MV411 cell line expresses the mutant allele of Flt3 with internal tandem duplications (ITD) of the gene. See Quentmeier et al., “FLT3 Mutations in Acute Myeloid Leukemia Cell Lines,” Leukemia 17(1), 2003, 120-124. […] See Grafone et al., “Monitoring of FLT3 Phosphorylation Status and Its Response to Drugs By Flow Cytometry in AML Blast Cells,” Hematol Oncol. 26(3), 2008, 159-166.

K562 cells = experiment: Cell viability assay (CellTiter-Blue), K562; assay type: cell-based; conditions: Homo sapiens; K562 (does not express ITD-FLT3), 72 hours treatment
Experimental: as §8
Cell viability was measured by the […]-BLUE® cell viability assay from Promega (Madison, Wis.). This procedure measures the conversion of the indicator dye (resazurin) to resorufin, an indicator of cell viability. Following treatment, growth media was removed and cells were incubated with 20 μl of […]-BLUE® Reagent and growth media for 1-4 hours at 37° C. Fluorescence values were measured at 535/590 nm using a Beckman-Coulter DTX-880 microplate reader.
Cells were grown to 70% confluency, trypsinized, counted, and seeded in 96 well flat-bottom plates at a final concentration of 2.5×10^3-5×10^3 cells/well (Day 0). Cells were allowed to incubate in growth media for 24 hours to allow for maximum adhesion. Treatment with the test agents or standard agents began on Day 1 and continued for 72 hours. At the 72-hour time point, treatment containing media was removed. Viable cell numbers were quantified by the […]-BLUE® cell viability assay as described above. Experiments were repeated at least twice with the same concentrations to determine growth inhibitory activity. Results from these studies were used to calculate an IC50 value (concentration of drug that inhibits cell growth by 50 percent of control) for each compound.
as §9, §10

ROCK1 = ROCK1 (Homo sapiens (Human), UniProt Q13464); experiment: ROCK1 kinase inhibition assay (peptide phosphorylation, LabChip 3000); assay type: biochemical; conditions: 5 μM ATP, 3 nM ROCK1, 3 hours at 25° C.
ROCK1, sequence (Q13464 whole entry): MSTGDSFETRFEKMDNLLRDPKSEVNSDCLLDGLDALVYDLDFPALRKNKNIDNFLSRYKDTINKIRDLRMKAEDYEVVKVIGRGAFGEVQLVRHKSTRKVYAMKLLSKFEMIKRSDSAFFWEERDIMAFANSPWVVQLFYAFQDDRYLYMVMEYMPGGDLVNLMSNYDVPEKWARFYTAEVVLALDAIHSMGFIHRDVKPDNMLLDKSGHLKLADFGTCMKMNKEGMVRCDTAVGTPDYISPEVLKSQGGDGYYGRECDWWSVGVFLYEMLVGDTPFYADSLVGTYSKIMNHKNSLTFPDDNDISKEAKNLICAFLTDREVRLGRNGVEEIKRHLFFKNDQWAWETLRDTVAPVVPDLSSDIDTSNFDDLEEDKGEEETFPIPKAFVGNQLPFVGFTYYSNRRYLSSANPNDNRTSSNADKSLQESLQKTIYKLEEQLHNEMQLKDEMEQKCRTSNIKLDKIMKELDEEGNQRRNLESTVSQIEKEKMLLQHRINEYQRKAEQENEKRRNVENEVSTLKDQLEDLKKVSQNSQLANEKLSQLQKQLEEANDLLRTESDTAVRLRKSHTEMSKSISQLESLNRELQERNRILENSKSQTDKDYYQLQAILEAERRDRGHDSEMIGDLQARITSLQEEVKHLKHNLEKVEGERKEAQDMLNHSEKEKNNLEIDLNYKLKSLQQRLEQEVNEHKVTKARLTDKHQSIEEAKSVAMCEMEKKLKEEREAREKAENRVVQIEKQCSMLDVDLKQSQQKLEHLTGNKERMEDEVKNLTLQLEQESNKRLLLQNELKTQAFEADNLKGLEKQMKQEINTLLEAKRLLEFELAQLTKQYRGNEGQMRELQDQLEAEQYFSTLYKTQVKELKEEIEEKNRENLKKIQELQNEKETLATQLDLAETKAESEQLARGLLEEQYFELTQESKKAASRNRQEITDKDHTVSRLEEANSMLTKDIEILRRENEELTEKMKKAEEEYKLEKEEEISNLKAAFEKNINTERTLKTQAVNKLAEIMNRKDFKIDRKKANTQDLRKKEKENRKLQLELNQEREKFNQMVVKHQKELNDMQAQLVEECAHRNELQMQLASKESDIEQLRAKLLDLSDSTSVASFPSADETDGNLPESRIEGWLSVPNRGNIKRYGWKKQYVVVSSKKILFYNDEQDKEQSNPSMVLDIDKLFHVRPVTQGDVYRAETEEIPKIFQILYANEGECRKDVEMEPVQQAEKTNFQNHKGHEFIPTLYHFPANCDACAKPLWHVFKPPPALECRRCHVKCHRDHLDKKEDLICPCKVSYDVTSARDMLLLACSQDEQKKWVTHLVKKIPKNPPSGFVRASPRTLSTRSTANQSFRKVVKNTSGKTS
Experimental: as §1, §2, §3, §4, §5, §6
as §7, with “Negative control samples (0%-inhibition in the absence of inhibitor) and positive control samples (100%-inhibition in the presence of 20 mM EDTA) are assembled in replicates of four and are used to calculate %-inhibition values for each compound at each concentration.” left out

ROCK2, sequence (O75116 whole entry): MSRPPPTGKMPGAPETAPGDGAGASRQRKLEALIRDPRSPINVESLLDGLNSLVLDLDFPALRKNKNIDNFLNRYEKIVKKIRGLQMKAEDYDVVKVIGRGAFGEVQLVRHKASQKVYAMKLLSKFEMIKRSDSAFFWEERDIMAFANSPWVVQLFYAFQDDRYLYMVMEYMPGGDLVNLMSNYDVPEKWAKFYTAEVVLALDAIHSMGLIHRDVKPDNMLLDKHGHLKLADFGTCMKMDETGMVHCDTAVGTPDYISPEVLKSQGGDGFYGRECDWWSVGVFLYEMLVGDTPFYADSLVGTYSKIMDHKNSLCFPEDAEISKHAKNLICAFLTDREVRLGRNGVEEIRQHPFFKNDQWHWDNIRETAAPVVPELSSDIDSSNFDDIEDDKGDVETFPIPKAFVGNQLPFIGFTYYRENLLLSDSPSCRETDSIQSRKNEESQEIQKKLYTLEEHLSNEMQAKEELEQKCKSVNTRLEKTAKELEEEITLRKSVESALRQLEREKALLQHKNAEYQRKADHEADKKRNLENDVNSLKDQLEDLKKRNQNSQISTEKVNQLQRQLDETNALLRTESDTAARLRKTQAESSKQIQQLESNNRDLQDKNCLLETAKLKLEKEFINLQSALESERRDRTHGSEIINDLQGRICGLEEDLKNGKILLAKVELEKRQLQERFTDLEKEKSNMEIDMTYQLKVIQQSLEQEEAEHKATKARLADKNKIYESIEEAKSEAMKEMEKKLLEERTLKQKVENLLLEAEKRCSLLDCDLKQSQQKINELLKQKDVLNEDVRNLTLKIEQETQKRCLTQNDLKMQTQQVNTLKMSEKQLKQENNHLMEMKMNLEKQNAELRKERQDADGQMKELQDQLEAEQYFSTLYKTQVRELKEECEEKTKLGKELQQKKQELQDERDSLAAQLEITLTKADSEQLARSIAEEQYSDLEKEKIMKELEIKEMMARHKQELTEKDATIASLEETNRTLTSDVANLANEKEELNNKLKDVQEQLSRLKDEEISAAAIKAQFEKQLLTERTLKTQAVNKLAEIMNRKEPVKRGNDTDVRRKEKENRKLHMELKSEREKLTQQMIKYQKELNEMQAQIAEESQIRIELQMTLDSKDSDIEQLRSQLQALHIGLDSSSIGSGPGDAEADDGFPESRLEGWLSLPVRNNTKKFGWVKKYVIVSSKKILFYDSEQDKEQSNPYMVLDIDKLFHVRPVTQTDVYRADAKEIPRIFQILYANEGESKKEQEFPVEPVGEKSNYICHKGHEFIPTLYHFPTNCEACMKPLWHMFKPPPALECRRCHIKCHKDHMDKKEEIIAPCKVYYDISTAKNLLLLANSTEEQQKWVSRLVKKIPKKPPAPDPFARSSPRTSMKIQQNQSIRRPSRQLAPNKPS

IC50 (ROCK2) [µM]	IC50 (K562 cells) [µM]	IC50 (ROCK1) [µM]	IC50 (MV411 cells) [µM]	SMILES	FLT3-ITD+ Selectivity (K562/MV411) (MV411 cells)
0.0276	> 100	0.207	–	O=C(N[C@H](CO)c1cccc(F)c1)c1cc(-c2ccncc2)[nH]n1 [Compound 1]	>1
0.0174	> 100	0.0651	7.1	COc1cccc(CNC(=O)c2cc3ccc(-c4ccncc4)nc3s2)c1 [Compound 39]	>14
0.017	–	0.164	14.8	COc1cccc(CNC(=O)c2cc3ccc(-c4cn[nH]c4)nc3s2)c1 [Compound 40]	>7
0.0045	31	–	1.6	COc1cccc([C@@H](C)NC(=O)c2cc3ccc(-c4cn[nH]c4)nc3s2)c1 [Compound 58]	19
0.02	25	–	4.5	COc1cccc(CN(CCN(C)C)C(=O)c2cc3ccc(-c4cn[nH]c4)nc3s2)c1 [Compound 59]	6
–	65	–	12.9	CC(C)NC(=O)c1cccc(CNC(=O)c2cc3ccc(-c4cn[nH]c4)nc3s2)c1 [Compound 60]	5
0.0071	54	–	8.2	COc1cccc([C@@H](CO)NC(=O)c2cc3ccc(-c4cn[nH]c4)nc3s2)c1 [Compound 61]	7
0.0292	–	–	–	C[C@@H](NC(=O)c1cc(-c2ccncc2)n[nH]1)c1cccc(F)c1 [Compound 64]	–
0.0098	–	–	–	C[C@@H](NC(=O)c1cc(-c2ccncc2)n[nH]1)c1cccc(Cl)c1 [Compound 66]	–
0.0101	–	–	–	O=C(N[C@H](CO)c1cccc(Cl)c1)c1cc(-c2ccncc2)n[nH]1 [Compound 67]	–
0.509	–	–	–	O=C(N[C@H](CO)c1ccccc1)c1cc(-c2ccncc2)n[nH]1 [Compound 68]	–

— US10807966B2, “Heterocyclic compounds as kinase inhibitors” (TRANSLATIONAL DRUG DEVELOPMENT, LLC, priority 2016, dated 2020)
